{"source": "patent US8551937B2", "about": "“Peptide having an extending action for half-life of object peptide in plasma” (priority 2008, dated 2013)", "key": {"[1]": {"experiment": "in vivo", "conditions": "male, SD, rat, iv, 20 nmol/kg"}, "[2]": {"experiment": "CNP immunoreactivity concentration in plasma after administration to rats (competitive RIA), pharmacokinetic parameters (Example 2)", "type": "in vivo, rat", "conditions": "rat, plasma, 0.1 mg/kg, male rats, N = 3, mean ± SD; for half-life: read-out: T½", "protocol": "Pharmacokinetic parameters were calculated from the resulting changes in immunoreactivity concentrations in plasma. At that time, WinNonlin Professional Ver. 4.0.1 (manufactured by Pharsight Corporation, U.S.A.) was used as the analytical software. Method for the calculation of each parameter is mentioned as follows.\nConcentration at time 0 (C0; extrapolated value, ng/mL), area under the curve for concentration in plasma vs. time (AUC; ng.min/mL) and quenching half-life (T½; minute(s)) were calculated as follows. C0 was calculated as a value at time by means of extrapolation from the changes in immunoreactivity concentration in plasma at each blood collection period. AUC was calculated by a trapezoidal method using the immunoreactivity concentrations in plasma at all measuring points (t) and an extrapolated value until the infinitive time was determined. T½ was calculated by means of a least-squares method from the inclination of a straight line connecting several points in a disappearing phase of the immunoreactivity concentration in plasma. In the case of a subcutaneous administration, C0 was not determined but the maximum concentration in plasma (Cmax; ng/mL) and the time reaching the maximum concentration in plasma (Tmax; min) were determined.\nChanges in CNP immunoreactivity concentration in plasma of native CNP-22 and chimeric peptide (chimeric CNP) where a half-life-extension peptide was added to CNP were investigated.\nThe experiment was conducted in the same manner as in Example 1 that rats where polyethylene tube was previously inserted into thigh artery were used under an anesthetizing condition with Nembutal and male SD strain rats of 7 weeks age (purchased from Nippon Charles River) were used where one group comprised 3 rats. […] At that time, a rabbit polyclonal antibody (#2) recognizing a ring part of native CNP-22 was used as an antibody and ^125I-[Tyr^0] CNP was used as a labeling compound. Pharmacokinetic analysis was carried out by the same method as in Example 1."}, "[3]": {"target": "T1, neutral endopeptidase (NEP) (Homo sapiens, UniProt P08473)", "T1 construct": "purchased R&D Systems, Inc., U.S.A", "T1 sequence (P08473 whole entry)": "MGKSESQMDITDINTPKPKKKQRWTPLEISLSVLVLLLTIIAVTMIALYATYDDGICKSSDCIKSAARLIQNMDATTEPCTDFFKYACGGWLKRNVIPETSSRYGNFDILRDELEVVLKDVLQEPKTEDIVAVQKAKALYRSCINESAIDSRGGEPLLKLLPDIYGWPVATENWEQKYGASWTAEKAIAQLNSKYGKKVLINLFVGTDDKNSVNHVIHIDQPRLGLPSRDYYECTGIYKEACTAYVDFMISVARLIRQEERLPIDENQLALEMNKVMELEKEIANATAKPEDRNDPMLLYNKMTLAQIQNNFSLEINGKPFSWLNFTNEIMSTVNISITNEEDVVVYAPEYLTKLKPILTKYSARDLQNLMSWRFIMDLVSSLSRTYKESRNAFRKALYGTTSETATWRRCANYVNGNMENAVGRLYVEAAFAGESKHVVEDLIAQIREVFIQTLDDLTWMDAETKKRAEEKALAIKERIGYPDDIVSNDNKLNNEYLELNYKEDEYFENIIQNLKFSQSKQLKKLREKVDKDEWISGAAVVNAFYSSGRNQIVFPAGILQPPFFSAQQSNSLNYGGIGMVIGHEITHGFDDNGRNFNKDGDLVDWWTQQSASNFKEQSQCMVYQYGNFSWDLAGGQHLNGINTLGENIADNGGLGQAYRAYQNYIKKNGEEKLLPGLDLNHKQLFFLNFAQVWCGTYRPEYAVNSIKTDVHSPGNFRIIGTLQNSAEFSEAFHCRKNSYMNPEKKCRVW", "experiment": "Resistance to peptidase: stability to hNEP (HPLC residual rate)", "type": "in vitro ADME", "conditions": "human, isolated enzyme neprilysin, pH 6.5", "protocol": "The experiment was conducted in N=2 for each sample. Native CNP-22, chimeric CNP (A, B) (structure mentioned already; final concentration: 0.5 μg/mL) and 100 μL of reaction solution (medium: 20 mM MES, pH 6.5) of human type recombinant neutral endopeptidase (hNEP, manufactured by R&D Systems, Inc., U.S.A.) were prepared. […] Distilled water (100 μL) was added to the sample after boiling followed by well mixing and 50 μL thereof was analyzed in a water-acetonitrile system using a high-performance liquid chromatography system LC-10A (manufactured by Shimadzu). The analytical data were analyzed by a Chromato-Pack (CRA-10A, manufactured by Shimadzu) and area of the peak zone of unchanged substance was calculated. The area of average zone of unchanged substance when made to react at 37° C. was divided by the area of average zone of the boiled sample to calculate the residual rate of the unchanged substance after 1 hour."}, "[4]": {"target": "T2, NEP (Rattus norvegicus, UniProt P07861)", "T2 construct": "male SD strain rats of 7 weeks age (Nippon Charles River; body weight: ca. 250 g) were used; from tissue; host or cells: whole animal: male SD rats (Nippon Charles River), in vivo", "T2 sequence (P07861 1-750)": "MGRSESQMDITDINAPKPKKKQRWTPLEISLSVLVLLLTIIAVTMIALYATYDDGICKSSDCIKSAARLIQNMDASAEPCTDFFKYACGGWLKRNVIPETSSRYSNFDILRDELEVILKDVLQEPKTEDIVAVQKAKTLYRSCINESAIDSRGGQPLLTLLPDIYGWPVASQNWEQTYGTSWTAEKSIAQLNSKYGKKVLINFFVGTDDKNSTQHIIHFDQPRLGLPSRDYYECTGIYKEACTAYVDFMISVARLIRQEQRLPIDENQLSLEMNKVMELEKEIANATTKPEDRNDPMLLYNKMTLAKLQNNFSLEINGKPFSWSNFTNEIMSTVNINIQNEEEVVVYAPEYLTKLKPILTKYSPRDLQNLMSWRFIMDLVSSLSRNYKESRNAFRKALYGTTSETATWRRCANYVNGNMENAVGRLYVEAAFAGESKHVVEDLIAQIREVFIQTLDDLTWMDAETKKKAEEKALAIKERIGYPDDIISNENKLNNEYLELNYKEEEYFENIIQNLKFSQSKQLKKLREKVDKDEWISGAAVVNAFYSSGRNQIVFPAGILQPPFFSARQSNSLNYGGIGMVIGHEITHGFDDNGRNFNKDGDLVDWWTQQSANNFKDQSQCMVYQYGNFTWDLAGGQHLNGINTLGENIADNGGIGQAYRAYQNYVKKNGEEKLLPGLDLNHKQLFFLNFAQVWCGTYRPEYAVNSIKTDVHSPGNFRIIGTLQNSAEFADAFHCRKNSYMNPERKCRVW", "experiment": "NEP resistance in vivo: influence of NEP inhibitor on pharmacokinetic parameters after intravenous administration", "conditions": "rat, in vivo", "protocol": "Further, NEP resistance in vivo of the native CNP-22 and chimeric CNP (B) was evaluated using the effect by the joint use with an NEP inhibitor affecting on changes in CNP immunoreactivity concentration in plasma after the intravenous administration as an index. This test was also carried out using rats into which a polyethylene tube (PE-50, manufactured by Clay […].) was inserted into thigh artery for collection of blood and rats into which a polyethylene tube (PE-10, manufactured by Clay […].) was inserted into thigh vein for administration of an NEP inhibitor under an anesthetizing condition using Nembutal. As a test system, male SD strain rats of 7 weeks age (Nippon Charles River; body weight: ca. 250 g) were used for the experiment where one group comprised 3 rats. […] Time for the administration was from 10 minutes before the administration of the native CNP-22 or the chimeric CNP (B) to completion of blood collection which was 60 minutes after the administration. The native CNP-22 and the chimeric CNP (B) each was administered into the tail vein in a dose of 20 μg/kg and the blood before starting the administration of NEP inhibitor (-10 minutes), before the administration of CNP (0 minute) and until after 60 minutes from the administration was collected by a thigh artery cannula. After a stabilizer and an anticoagulant were added to the collected blood, it was centrifuged to give plasma and the immunoreactivity concentration in the plasma was measured by the above-mentioned competitive RIA. The pharmacokinetic analysis was carried out by the same method as in Example 1."}}, "note": "Where a SMILES comes first, the peptide text is derived from it. Bridges are numbered along the chain shown (N, C = ends).", "data": [{"smiles": "CC[C@H](C)[C@@H]1NC(=O)[C@H](CCCNC(=N)N)NC(=O)[C@H](CC(=O)O)NC(=O)[C@H](CC(C)C)NC(=O)[C@H](CCCCN)NC(=O)[C@H](CC(C)C)NC(=O)CNC(=O)[C@H](Cc2ccccc2)NC(=O)[C@@H](N)CSSC[C@@H](C(=O)N[C@@H](C)C(=O)NCC(=O)N[C@@H](CO)C(=O)N[C@H](C(=O)N[C@@H](CC(=O)O)C(=O)N[C@@H](Cc2c[nH]cn2)C(=O)N[C@@H](CCCCN)C(=O)NCC(=O)N[C@@H](CCCCN)C(=O)N[C@@H](CCC(N)=O)C(=O)N[C@@H](CCCNC(=N)N)C(=O)N[C@@H](CCCCN)C(=O)N[C@H](C(=O)N[C@H](C(=O)N[C@@H](CC(=O)O)C(=O)N[C@@H](Cc2c[nH]cn2)C(=O)N2CCC[C@H]2C(=O)N[C@@H](CCCCN)C(=O)N[C@@H](CCCNC(=N)N)C(=O)O)C(C)C)C(C)C)C(C)C)NC(=O)CNC(=O)[C@H](CC(C)C)NC(=O)CNC(=O)[C@H](CO)NC(=O)[C@H](CCSC)NC(=O)[C@H](CO)NC(=O)CNC1=O", "note": "[Chimeric CNP (K)] (H-CFGLKLDRIGSMSGLGCAGSVDHKGKQRKVVDHPKR-OH; disulfide 1-17; N-terminus and C-terminus assumed)", "values": [{"measurement": "half-life", "setting": "[1]", "result": 18, "unit": "min"}]}, {"smiles": "CC[C@H](C)[C@@H]1NC(=O)[C@H](CCCNC(=N)N)NC(=O)[C@H](CC(=O)O)NC(=O)[C@H](CC(C)C)NC(=O)[C@H](CCCCN)NC(=O)[C@H](CC(C)C)NC(=O)CNC(=O)[C@H](Cc2ccccc2)NC(=O)[C@@H](NC(=O)CNC(=O)[C@H](CCCCN)NC(=O)[C@H](CO)NC(=O)[C@H](CC(C)C)NC(=O)CN)CSSC[C@@H](C(=O)N[C@H](C(=O)N[C@@H](CCC(N)=O)C(=O)N[C@@H](CCC(N)=O)C(=O)N[C@@H](CCCNC(=N)N)C(=O)N[C@@H](CCCCN)C(=O)N[C@@H](CC(=O)O)C(=O)N[C@@H](CO)C(=O)N[C@@H](CCCCN)C(=O)N[C@@H](CCCCN)C(=O)N2CCC[C@H]2C(=O)N2CCC[C@H]2C(=O)N[C@@H](C)C(=O)N[C@@H](CCCCN)C(=O)N[C@@H](CC(C)C)C(=O)N[C@@H](CCC(N)=O)C(=O)N2CCC[C@H]2C(=O)N[C@@H](CCCNC(=N)N)C(=O)O)C(C)C)NC(=O)CNC(=O)[C@H](CC(C)C)NC(=O)CNC(=O)[C@H](CO)NC(=O)[C@H](CCSC)NC(=O)[C@H](CO)NC(=O)CNC1=O", "note": "[Chimeric CNP (J)] (H-GLSKGCFGLKLDRIGSMSGLGCVQQRKDSKKPPAKLQPR-OH; disulfide 6-22; N-terminus and C-terminus assumed)", "values": [{"measurement": "half-life", "setting": "[1]", "result": 31.2, "unit": "min"}]}, {"smiles": "CC[C@H](C)[C@@H]1NC(=O)[C@H](CCCNC(=N)N)NC(=O)[C@H](CC(=O)O)NC(=O)[C@H](CC(C)C)NC(=O)[C@H](CCCCN)NC(=O)[C@H](CC(C)C)NC(=O)CNC(=O)[C@H](Cc2ccccc2)NC(=O)[C@@H](N)CSSC[C@@H](C(=O)N[C@H](C(=O)N[C@@H](CCC(N)=O)C(=O)N[C@@H](CCC(N)=O)C(=O)N[C@@H](CCCNC(=N)N)C(=O)N[C@@H](CCCCN)C(=O)N[C@@H](CCC(=O)O)C(=O)N[C@@H](CO)C(=O)N[C@@H](CCCCN)C(=O)N[C@@H](CCCCN)C(=O)N2CCC[C@H]2C(=O)N2CCC[C@H]2C(=O)N[C@@H](C)C(=O)N[C@@H](CCCCN)C(=O)N[C@@H](CC(C)C)C(=O)N[C@@H](CCC(N)=O)C(=O)N2CCC[C@H]2C(=O)N[C@@H](CCCNC(=N)N)C(=O)O)C(C)C)NC(=O)CNC(=O)[C@H](CC(C)C)NC(=O)CNC(=O)[C@H](CO)NC(=O)[C@H](CCSC)NC(=O)[C@H](CO)NC(=O)CNC1=O", "note": "[Chimeric CNP (B)] (H-CFGLKLDRIGSMSGLGCVQQRKESKKPPAKLQPR-OH; disulfide 1-17; N-terminus and C-terminus assumed)", "values": [{"measurement": "AUC(0-inf)", "setting": "[2]; sc, subcutaneous", "result": 28.1, "unit": "ng·h/mL"}, {"measurement": "Cmax", "setting": "[2]; sc, subcutaneous", "result": "32.8 ± 7.9", "unit": "ng/mL"}, {"measurement": "Tmax", "setting": "[2]; sc, subcutaneous", "result": 10, "unit": "min"}, {"measurement": "half-life", "setting": "[2]; sc, subcutaneous", "result": "24 ± 9.7", "unit": "min"}, {"measurement": "AUC(0-inf)", "setting": "[2]; intravenous", "result": 153, "unit": "ng·h/mL"}, {"measurement": "C0", "setting": "[2]; intravenous, extrapolated value", "result": "1470 ± 749", "unit": "ng/mL"}, {"measurement": "half-life", "setting": "[2]; intravenous", "result": "36.2 ± 2.3", "unit": "min"}, {"measurement": "remaining at 1 h, 0.5 μg/mL", "setting": "[3]", "result": 83.8, "unit": "%"}, {"measurement": "AUC0→∞", "setting": "[4]; male, SD, iv, 0.02 mg/kg", "result": "1342 ± 168", "unit": "ng·min/mL"}, {"measurement": "C0", "setting": "[4]; male, SD, iv, 0.02 mg/kg", "result": "203 ± 71", "unit": "ng/mL"}, {"measurement": "T½", "setting": "[4]; male, SD, iv, 0.02 mg/kg", "result": "12.7 ± 1.2", "unit": "min"}, {"measurement": "AUC(0-inf)", "setting": "[4]; male, SD, iv, 0.02 mg/kg, AUC0→∞", "result": 24.5, "unit": "ng·h/mL"}, {"measurement": "C0", "setting": "[4]; male, SD, iv, 0.02 mg/kg, C0", "result": "253 ± 15", "unit": "ng/mL"}, {"measurement": "half-life", "setting": "[4]; male, SD, iv, 0.02 mg/kg, T½", "result": "14.9 ± 3.1", "unit": "min"}, {"measurement": "decomposition by NEP in the body of the rat", "setting": "[4]", "result": "hardly decomposed by NEP"}]}]}
